Columns and labels:
Assay type in all cases: functional
[1] = species: Cavia porcellus; test: Evaluated for in vitro antiplatelet activity against guinea pig platelet rich plasma aggregated by arachidonic acid (AA)
[2] = species: Cavia porcellus; test: In vitro antiplatelet activity against guinea pig platelet rich plasma aggregated by collagen
[3] = species: Cavia porcellus; test: Evaluated for in vitro antiplatelet activity against guinea pig platelet rich plasma aggregated by […] (ADP)

Structure (SMILES) | IC50 [1] [µM] | IC50 [2] [µM] | IC50 ([1]; read-out: IC50) [µM] | IC50 ([2]; read-out: IC50) [µM] | IC50 [3] [µM]
CC(=O)Oc1ccccc1C(=O)O [ASPIRIN] | 61 | 48 |  |  | 
c1ccc2c(c1)OC(N1CCOCC1)c1cnc(N3CCCCC3)nc1-2 (stereo not given) |  |  | 25 | 60 | 
c1ccc2c(c1)OC(N1CCOCC1)c1cnc(N3CCOCC3)nc1-2 (stereo not given) |  |  | 95 | 60 | 
c1ccc2c(c1)OC(N1CCCC1)c1cnc(N3CCCC3)nc1-2 (stereo not given) |  |  | 80 | 170 | 200
CSc1ncc2c(n1)-c1ccccc1OC2N1CCCC1 (stereo not given) |  |  | 85 |  | 180
c1ccc2c(c1)OC(N1CCCCC1)c1cnc(N3CCCC3)nc1-2 (stereo not given) |  |  | 90 |  | 
c1ccc2c(c1)OC(N1CCOCC1)c1cnc(N3CCCC3)nc1-2 (stereo not given) |  |  | 75 | 50 | 
c1ccc2c(c1)OC(N1CCCCC1)c1cnc(N3CCOCC3)nc1-2 (stereo not given) |  |  |  | 200 | 
Nc1ncc2c(n1)-c1ccccc1OC2N1CCCC1 (stereo not given) |  |  | 400 |  | 750
c1ccc2c(c1)OC(N1CCCC1)c1cnc(N3CCOCC3)nc1-2 (stereo not given) |  |  | 430 | 80 | 250
